In patent US20170197977A9, “COMPOSITIONS AND METHODS FOR TREATING NEURODEGENERATIVE DISEASE” (COGNITION THERAPEUTICS, INC., priority 2011, published 2017):
Entries after “also recorded” stand apart in the source; their conditions may differ.

Assays:
[1] = tested on: neurons and glia in culture; assay: In vitro neuronal and glial toxicity, acute or chronic dosing; type: cell-based; settings: up to 50 μM, three days
[2] = tested on: Abeta oligomer binding to neurons; assay: Abeta 1-42 oligomer binding assay in primary neurons; type: cell-based, rat
Protocol: In this assay, Abeta oligomers were brought in contact with mature primary neurons in culture and their binding was determined by immunohistochemistry (anti-Abeta antibody) and quantified by image processing. The amount of Abeta in neuronal dendrites is assessed by counting the number of labeled puncta on the neuritis. […] This labeling is associated with synapses, co-localizing with the post-synaptic scaffold protein PSD-95 (Lacor et al., '04). […] The number of synapses can also be quantified in this assay by immunofluorochemistry. Similar procedures for binding assays can be found in the literature. […] Review.
Primary hippocampal neuronal culture was established as in the membrane trafficking assay above. […] Pretreatment with compounds to be tested lasted for 1 hr and addition of Abeta oligomers or no oligomer (vehicle alone) in a final concentration of 70 ul was followed by incubation for an additional 23 hrs.
The plates were then washed 3× with PBS for 5 min each. The plates were blocked at RT for 1 hr in 5% goat serum and 0.5% Triton X-100 in PBS. […] Primary antibodies were incubated overnight at 4° C. The plates were then washed 3× with PBS for 5 min each. […] Secondary antibodies were incubated at RT for 1 hr. The plates were washed once with PBS. DAPI (4′,6-diamidino-2-phenylindole, Invitrogen) was then applied at 0.03 ug/ul and incubated at RT for 5 min, then washed with PBS.
Images were captured and analyzed with the Cellomics VTI automated microscope platform, using the Neuronal Profiling algorithm. For statistical analysis, a Tukey-Kramer pair-wise comparison with unequal variance was used.

[3] = tested on: SKOV-3 human ovarian cancer cell line; assay: MTS tumor cell viability assay; type: cell-based; settings: agonist/antagonist call relative to siramesine
Protocol: The cytotoxicity of compounds shown below was determined using the CellTiter96 Aqueous One Solution Assay (Promega, Madison, Wis.). […] The plate was read at 490 nm in a Victor3 plate reader (PerkinElmer Life and Analytical Sciences, Shelton, Conn.). The EC^50 value, defined as the concentration of the sigma ligand required to inhibit cell viability by 50% relative to untreated cells, was determined from the dose response curve for each cell line.

[4] = tested on: hAPP (Swedish/London) transgenic mice; settings: 0.5 mg/kg/day subcutaneous minipump, one month, 8 month old female mice
Protocol: In this study, rather than preventing deficits from occurring, deficits that were already established were treated. These studies were performed pursuant to a service contract by scientists who were blind to the experimental conditions. The compound was infused at 0.5 and 0.1 mg/kg/day for one month in 8 month old female mice via subcutaneous minipump and cognitive performance was tested in the Morris water maze, a test of hippocampal-based spatial learning and memory.
The swim speed was analyzed as part of the Morris measurements to determine if there were any motor or motivational deficits. Our vehicle is a 5% DMSO/5% Solutol, 90% saline mixture. The transgenic animals treated with a low dose (0.1 mg/kg/day) and a high dose (0.5 mg/kg/day) of compound. The average of three daily trials on each of four consecutive days were determined.
Escape latency measurements from the Morris water test were taken.
During the final four days of treatment, mice were tested to find the hidden platform in three trials/day. A computerized tracking system automatically quantified escape latency, or swim length.

[5] = tested on: Abeta oligomer-induced membrane trafficking deficits; assay: Membrane trafficking/exocytosis (MTT) assay in mature primary hippocampal neurons; type: cell-based, rat; settings: for Membrane trafficking when dosed in the absence of Abeta: compound alone
Protocol: The present exocytosis assay was adapted for use with mature primary neuronal cultures grown for 3 weeks in vitro.
The methods used to generate the results were as follows in the Membrane Trafficking/Exocytosis (MTT) assay.
Primary hippocampal neurons from E18 Sprague-Dawley rat embryos were plated at optimized concentrations in 384 well plates in NB media (Invitrogen). Neurons were maintained in cultures for 3 weeks, with twice weekly feeding of NB media with N2 supplement (Invitrogen).
[…] MTT reagent (3-(4,5-dimethylthizaol-2yl)-2,5diphenyl tetrazolium bromide) (Roche Molecular Biochemicals) was reconstituted in phosphate buffered saline to 5 mg/mL. 10 μL of MTT labeling reagent is added to each well and incubated at 37° C. for 1 h, then imaged. Exocytosis was assessed by automated microscopy and image processing to quantify the amount of endocytosed and exocytosed formazan.
Each assay plate was formatted so that compounds are tested with and without Abeta oligomer on each plate.

[6] = In vivo PK, plasma and brain levels; settings: male, C57BL/6, mouse
Text: A plasma calibration curve was generated. […] Subcutaneous compound administration was accomplished by […]. Per oral administration was accomplished by gastric gavage. Intravenous administration was accomplished via jugular catheter. […] A brain calibration curve was generated.

[7] = tested on: caspase-3 activity in neurons; assay: Caspase-3 activity assay in neurons; type: cell-based
Protocol: The activation of endogenous caspase-3 by sigma-2 receptor ligands was measured using the Caspase-3 Colorimetric Activity Assay Kit (Milipore, Billerica, Mass.) according to the manufacture's protocol. Briefly, MDA-MB 435 or MDA-MB23I cells were plated at 0.5×10^6 cells 100 mm dish. 24 hours after plating, sigma-2 ligands were added to the culture dishes to induce caspase 3 activation. The final concentration of the sigma-2 ligand was its EC50. 24 hours after treatment, cells were harvested, lysed in 300 uL of Cell Lysis Buffer, and centrifuged for 5 minutes at 10,000×g. Supernatant was collected and incubated with caspase-3 substrate, DEVD-pNA, for 2 hours at 37° C. […] Compounds IXa,IXb and II behaved like sigma-2 […] in both cancer cells and neurons.

neuronal cultures = assay: Nuclear intensity / morphology in neuronal cultures; settings: 24 hours

**Q.** Which results are given for COc1cc(CCC(C)NCc2ccc(C(F)(F)F)cc2)ccc1O (stereo not drawn) [Compound II]?
**A.** Toxicity (neuron number, glial number, nuclear size, nuclear morphology, neurite length, cytoskeletal morphology) [1]: no toxicity; Abeta binding ([2]; Compound II 15 uM): reduced to essentially control levels; Reduction of Abeta binding intensity (Abeta labeled puncta) ([2]; FIG. 3D): 18%; Partial block of binding of the Abeta oligomer ligand to neurons ([2]; imaging processing algorithm): about 25%; Action [3]: Antagonist; Cognitive performance, escape latency [4]: capable of improving cognitive performance; Membrane trafficking deficits induced by AD brain-derived Abeta oligomers ([5]; 137 pM oligomers, Compound II 15 uM): eliminates the membrane trafficking deficits; also recorded: completely eliminated; Abeta oligomer-induced membrane traffic changes ([5]; 15 micromolar Compound II): blocked; Assay effects in the absence of Aβ ([5]; Table 10A, trafficking or synapse number without Abeta oligomer): No; Functional Neuronal Phenotype ([5]; Table 10B): Antagonist; Conc at Max Inhib. of Abeta ([5]; Table 11, figure in brackets): 10; Membrane trafficking when dosed in the absence of Abeta [5]: does not affect trafficking; Membrane trafficking when dosed in the absence of Abeta ([5]; listed as CT0109): no significant effect; Brain concentration as multiple of the efficacious brain dose in vivo ([6]; iv, 10 mg/kg, 180 min): 57 ×; Amount in the brain as multiple of the efficacious dose ([6]; po, 3 h): ~40 ×; Induction of caspase-3 activity [7]: did not induce caspase-3 activity; Block of caspase-3 activation caused by sigma-2 receptor agonist SV-119 ([7]; 24 hours): blocked caspase-3 activation; Nuclear morphology / nuclear intensity compared to vehicle (neuronal cultures): did not decrease nuclear intensity
